Data as given in PubChem BioAssay AID2060904 (Molecular Pharmacology Branch, DTP, NCI, 2025).

System: 349418-098-R-PDC complex spheroid viability
Test: Anticancer human tumor 349418-098-R-PDC patient-derived lung adenocarcinoma cell line growth inhibition [RAS]
Conditions: for IC50: curve of first compound; for viability, T/C: stronger effect = lower value
From the text: RAS pathway inhibitors in Combinations in Complex Spheroids
A high-throughput screen of multi-cell type tumor spheroids was designed to identify active combinations of RAS pathway inhibitors and targeted small molecules. Complex spheroids include a stromal component modeled by human endothelial cells (HUVEC) and fibroblasts modeled by human mesenchymal stem cells (MSCs). The concentration ranges selected for each drug and investigational agent were based upon clinically achievable concentrations if the clinical Cmax of the agent was known.
Compounds. The drugs and investigational agents: abemaciclib (NSC768073), cobimetinib (NSC768068), divarasib (GDC6063, NSC841802), docetaxel (NSC628503), GDC-1971 (RLY-1971, NSC841576), gemcitabine (NSC613327), inavolisib (NSC800729), ipatasertib (NSC767898), KB-0742 (NSC834161), MRTX-1133 (NSC836407), osimertinib (NSC779217), RMC-4630 (NSC839698), RMC-6236 (NSC851965), RMC-6291 (NSC852671), Ro-3306 (NSC812927), sapanisertib (NSC764658), SN-38 (NSC673596), staurosporine (NSC755774), SY5609 (NSC837396), and tovorafenib (DAY101, NSC766906), were obtained from the National Cancer Institute (NCI) Developmental Therapeutics Program Chemical Repository. The FDA-approved anticancer drug set is available from the NCI Developmental Therapeutics Program. […] The stock solutions were prepared in dimethyl sulfoxide (DMSO, Sigma-Aldrich, St. Louis, MO, cat. D2650) at 800-fold the tested concentration and stored at -70 degrees C prior to their use. All drugs and investigational agents were tested over a range starting from a high concentration at or near the clinical Cmax and decreasing in half-log increments. If the clinical Cmax for an agent had not been determined, the highest concentration tested was 10 microM.
Cell Culture. All cells were maintained in an incubator at 37 degrees C and 5% CO2 with 95% humidity. The PDC lines were cultured according to standard operating procedures established by the NCI PDMR. All PDCs were thawed and cultured in Matrigel-coated flasks prepared with a working solution of 1X Ham's F-12 nutrient mix, without supplementation (Invitrogen, Waltham, MA, cat. 11765054), 100 U/mL penicillin-streptomycin (Invitrogen, cat. 15140122), and 2.5% Matrigel (Corning Inc., Corning, NY, cat. 354248) for the first three passages. The 362531-283-R-J2-PDC and 782815-120-R-J1-PDC lines were cultured in 6C/Colon 1B media, which includes advanced DMEM/F-12 (Thermo Fisher Scientific, cat. 12634028), 10 mM HEPES (Thermo Fisher Scientific, cat. 15630080), 1X GlutaMAX supplement (Thermo Fisher Scientific, cat. 35050061), 0.1 mg/mL primocin (InvivoGen, San Diego, CA, cat. ant-pm-2), 10% defined fetal bovine serum, heat inactivated (HyClone Laboratories Inc., Logan, UT, cat. SH30070.03HI), 50% L-WRN conditioned media (ATCC, cat. CRL-3276), 1.25 mM N-Acetyl-L-cysteine (Sigma-Aldrich, cat. A9165), 10 mM nicotinamide (Sigma-Aldrich, cat. N0636), 1X B-27 supplement (Thermo Fisher Scientific, cat. 17504044), 1X N-2 supplement (Thermo Fisher Scientific, cat. 17502048), 50 ng/mL human EGF (Thermo Fisher Scientific, cat. PHG0311), and 10 microM Y-27632 dihydrochloride (Tocris Bioscience, cat. 1254). The K12877-001-R-J1-PDC line was cultured in 6I media, which includes all 6C/Colon 1B media plus 10 ng/mL human FGF-10 (PeproTech, cat. 100-26), 1 ng/mL human FGF-2 (PeproTech, cat. 100-18B), 1 µM prostaglandin E2 (Tocris Bioscience, cat. 2296), […] hydrocortisone (Sigma-Aldrich, cat. H4001), and […] bovine insulin (Sigma-Aldrich, cat. I6634). The K86415-001-R-J1-PDC line was cultured in 6D media, which includes all 6C/Colon 1B media components minus the L-WRN conditioned media. The 485176-168-R4-J1-PDC was cultured in PANC media, which includes all 6C/Colon 1B media plus 100 ng/mL human FGF-10 (PeproTech, cat. 100-26), 500 nM SB-431542 (Selleckchem, cat. S1067), and 10 nM gastrin (Tocris Bioscience, cat. 3006). […]
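Note: spheroids exposed to compound for seven days before viability readout.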

In the case of O=C(c1ccc(F)c(F)c1Nc1ccc(I)cc1F)N1CC(O)([C@@H]2CCCCN2)C1 + C#Cc1c(F)ccc2cc(O)cc(-c3ncc4c(N5CC6CCC(C5)N6)nc(OCC56CCCN5CC(F)C6)nc4c3F)c12, the IC50 (second compound 0.0316 µM) is reported as under 3.16 nM, the IC50 (second compound 0.1 µM) is reported as under 3.16 nM and the IC50 (second compound 0.316 µM) is reported as under 3.16 nM. For the same compound, the IC50 (second compound 1 µM) was under 3.16 nM, the IC50 (second compound 3.16 µM) was under 3.16 nM and the IC50 (second compound 10 µM) was under 3.16 nM. It also gave a viability, T/C (second compound 0.0316 µM, first compound 0.00316 µM) of 47.9%, a viability, T/C (second compound 0.0316 µM, first compound 0.01 µM) of 37.5% and a viability, T/C (second compound 0.0316 µM, first compound 0.0316 µM) of 36.9%. The viability, T/C (second compound 0.0316 µM, first compound 0.1 µM) was 15.6%, the viability, T/C (second compound 0.0316 µM, first compound 0.316 µM) was 7.05% and the viability, T/C (second compound 0.0316 µM, first compound 1 µM) was 5.82%. The viability, T/C (second compound 0.1 µM, first compound 0.00316 µM) was 44.8%, the viability, T/C (second compound 0.1 µM, first compound 0.01 µM) was 39.8% and the viability, T/C (second compound 0.1 µM, first compound 0.0316 µM) was 29.3%. The viability, T/C (second compound 0.1 µM, first compound 0.1 µM) was 14.2%, the viability, T/C (second compound 0.1 µM, first compound 0.316 µM) was 7.41% and the viability, T/C (second compound 0.1 µM, first compound 1 µM) was 4.83%. The viability, T/C (second compound 0.316 µM, first compound 0.00316 µM) was 46%, the viability, T/C (second compound 0.316 µM, first compound 0.01 µM) was 32.6% and the viability, T/C (second compound 0.316 µM, first compound 0.0316 µM) was 24.1%. It also gave a viability, T/C (second compound 0.316 µM, first compound 0.1 µM) of 13.3%, a viability, T/C (second compound 0.316 µM, first compound 0.316 µM) of 5.32% and a viability, T/C (second compound 0.316 µM, first compound 1 µM) of 5.62%. For the same compound, the viability, T/C (second compound 1 µM, first compound 0.00316 µM) was 38.6%, the viability, T/C (second compound 1 µM, first compound 0.01 µM) was 31.1% and the viability, T/C (second compound 1 µM, first compound 0.0316 µM) was 21.9%. It also gave a viability, T/C (second compound 1 µM, first compound 0.1 µM) of 10.9%, a viability, T/C (second compound 1 µM, first compound 0.316 µM) of 5.57% and a viability, T/C (second compound 1 µM, first compound 1 µM) of 4.89%. The viability, T/C (second compound 3.16 µM, first compound 0.00316 µM) was 36.8%, the viability, T/C (second compound 3.16 µM, first compound 0.01 µM) was 22.8% and the viability, T/C (second compound 3.16 µM, first compound 0.0316 µM) was 16%. For the same compound, the viability, T/C (second compound 3.16 µM, first compound 0.1 µM) was 8.92%, the viability, T/C (second compound 3.16 µM, first compound 0.316 µM) was 6.05% and the viability, T/C (second compound 3.16 µM, first compound 1 µM) was 4.36%. For the same compound, the viability, T/C (second compound 10 µM, first compound 0.00316 µM) was 16.8%, the viability, T/C (second compound 10 µM, first compound 0.01 µM) was 7.65% and the viability, T/C (second compound 10 µM, first compound 0.0316 µM) was 3.23%. For the same compound, the viability, T/C (second compound 10 µM, first compound 0.1 µM) was 4.71%, the viability, T/C (second compound 10 µM, first compound 0.316 µM) was 2.14% and the viability, T/C (second compound 10 µM, first compound 1 µM) was 0.87%.
